Laboratory results: ChEMBL document CHEMBL1144455, “A small molecule-kinase interaction map for clinical kinase inhibitors” (Nat Biotechnol, 2005)

Legend:
[1] = target: T1, Dual specificity protein kinase TTK (Homo sapiens, UniProt P33981)
T1 sequence (P33981 whole entry): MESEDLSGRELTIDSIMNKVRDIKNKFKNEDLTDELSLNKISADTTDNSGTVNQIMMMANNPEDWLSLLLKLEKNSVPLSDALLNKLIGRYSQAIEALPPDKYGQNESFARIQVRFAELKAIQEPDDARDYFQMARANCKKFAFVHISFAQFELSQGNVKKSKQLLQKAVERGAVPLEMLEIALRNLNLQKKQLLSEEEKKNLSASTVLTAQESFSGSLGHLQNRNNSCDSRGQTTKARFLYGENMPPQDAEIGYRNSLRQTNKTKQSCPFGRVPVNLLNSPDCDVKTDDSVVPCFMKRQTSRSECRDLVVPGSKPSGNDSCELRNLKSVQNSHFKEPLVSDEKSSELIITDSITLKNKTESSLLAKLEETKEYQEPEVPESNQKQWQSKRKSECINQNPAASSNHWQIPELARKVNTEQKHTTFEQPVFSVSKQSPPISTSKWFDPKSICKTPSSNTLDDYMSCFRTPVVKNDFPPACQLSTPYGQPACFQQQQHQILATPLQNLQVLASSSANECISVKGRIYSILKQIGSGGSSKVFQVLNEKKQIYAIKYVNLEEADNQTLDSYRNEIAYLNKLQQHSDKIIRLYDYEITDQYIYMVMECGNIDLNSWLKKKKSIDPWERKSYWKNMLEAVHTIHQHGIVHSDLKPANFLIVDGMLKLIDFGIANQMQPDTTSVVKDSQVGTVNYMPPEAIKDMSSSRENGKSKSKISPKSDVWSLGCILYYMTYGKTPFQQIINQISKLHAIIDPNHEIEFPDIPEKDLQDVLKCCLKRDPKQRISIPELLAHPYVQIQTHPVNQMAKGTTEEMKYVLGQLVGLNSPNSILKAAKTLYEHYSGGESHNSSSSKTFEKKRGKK

[2] = target: Tyrosine-protein kinase Fgr (Homo sapiens, UniProt P09769)
[3] = target: Serine/threonine-protein kinase 16 (Homo sapiens, UniProt O75716)
[4] = target: T2, Ephrin type-B receptor 4 (Homo sapiens, UniProt P54760)
T2 sequence (P54760 whole entry): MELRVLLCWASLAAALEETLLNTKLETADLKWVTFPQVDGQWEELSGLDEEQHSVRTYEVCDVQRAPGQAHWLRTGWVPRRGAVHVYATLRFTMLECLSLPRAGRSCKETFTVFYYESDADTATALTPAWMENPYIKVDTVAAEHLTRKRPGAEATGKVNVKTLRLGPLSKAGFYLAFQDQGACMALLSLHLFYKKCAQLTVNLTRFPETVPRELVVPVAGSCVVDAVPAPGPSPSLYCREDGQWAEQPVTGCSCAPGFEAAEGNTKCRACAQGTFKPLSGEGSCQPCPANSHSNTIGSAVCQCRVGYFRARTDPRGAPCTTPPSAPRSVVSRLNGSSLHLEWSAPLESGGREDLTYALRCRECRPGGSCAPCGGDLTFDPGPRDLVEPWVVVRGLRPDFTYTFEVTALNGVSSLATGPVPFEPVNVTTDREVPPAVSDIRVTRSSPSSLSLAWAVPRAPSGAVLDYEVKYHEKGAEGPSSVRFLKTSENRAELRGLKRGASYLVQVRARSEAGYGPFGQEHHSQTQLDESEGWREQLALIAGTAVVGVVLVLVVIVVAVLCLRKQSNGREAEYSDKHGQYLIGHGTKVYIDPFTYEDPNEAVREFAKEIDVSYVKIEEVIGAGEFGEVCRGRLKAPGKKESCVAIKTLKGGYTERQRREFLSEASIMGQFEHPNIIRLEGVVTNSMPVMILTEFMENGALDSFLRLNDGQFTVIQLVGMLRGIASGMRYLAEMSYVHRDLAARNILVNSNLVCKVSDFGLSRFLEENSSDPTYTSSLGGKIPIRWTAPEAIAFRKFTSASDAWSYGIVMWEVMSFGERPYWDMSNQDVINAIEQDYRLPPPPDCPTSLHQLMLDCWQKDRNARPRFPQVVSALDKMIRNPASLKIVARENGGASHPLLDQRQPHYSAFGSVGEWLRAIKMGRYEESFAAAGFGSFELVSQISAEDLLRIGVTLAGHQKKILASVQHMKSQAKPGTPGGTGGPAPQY

[5] = target: Tyrosine-protein kinase JAK1 (Homo sapiens, UniProt P23458)
[6] = target: Death-associated protein kinase 3 (Homo sapiens, UniProt O43293)
[7] = target: T3, Serine/threonine-protein kinase Nek9 (Homo sapiens, UniProt Q8TD19)
T3 sequence (Q8TD19 whole entry): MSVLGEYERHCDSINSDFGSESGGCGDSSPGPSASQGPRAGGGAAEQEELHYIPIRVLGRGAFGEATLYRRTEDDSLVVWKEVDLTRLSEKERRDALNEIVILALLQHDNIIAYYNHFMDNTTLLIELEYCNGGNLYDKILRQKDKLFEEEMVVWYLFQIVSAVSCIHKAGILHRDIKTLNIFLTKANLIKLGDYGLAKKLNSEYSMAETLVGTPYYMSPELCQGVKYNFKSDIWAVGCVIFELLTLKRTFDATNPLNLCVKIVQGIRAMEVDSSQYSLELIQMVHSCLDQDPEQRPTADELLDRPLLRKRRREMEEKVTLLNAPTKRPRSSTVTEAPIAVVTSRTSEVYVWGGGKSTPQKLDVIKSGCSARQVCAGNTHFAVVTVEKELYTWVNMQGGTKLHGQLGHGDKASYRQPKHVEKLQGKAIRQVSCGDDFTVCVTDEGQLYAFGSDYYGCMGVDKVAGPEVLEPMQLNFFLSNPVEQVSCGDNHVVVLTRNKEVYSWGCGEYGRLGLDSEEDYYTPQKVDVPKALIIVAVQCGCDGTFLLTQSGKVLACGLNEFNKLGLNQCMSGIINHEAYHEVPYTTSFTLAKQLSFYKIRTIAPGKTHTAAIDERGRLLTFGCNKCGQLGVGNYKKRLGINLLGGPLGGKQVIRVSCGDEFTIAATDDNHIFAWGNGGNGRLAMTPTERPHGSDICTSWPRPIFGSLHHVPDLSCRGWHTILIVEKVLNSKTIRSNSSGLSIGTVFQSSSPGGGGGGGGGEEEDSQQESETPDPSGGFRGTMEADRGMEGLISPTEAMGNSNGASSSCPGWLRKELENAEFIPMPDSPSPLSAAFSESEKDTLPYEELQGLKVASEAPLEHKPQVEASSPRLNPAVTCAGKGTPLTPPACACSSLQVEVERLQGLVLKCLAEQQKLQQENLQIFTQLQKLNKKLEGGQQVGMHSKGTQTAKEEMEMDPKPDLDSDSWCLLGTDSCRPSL

[8] = target: Serine/threonine-protein kinase PAK 4 (Homo sapiens, UniProt O96013)

Measured: Kd

Sequence of Death-associated protein kinase 3 (O43293 whole entry): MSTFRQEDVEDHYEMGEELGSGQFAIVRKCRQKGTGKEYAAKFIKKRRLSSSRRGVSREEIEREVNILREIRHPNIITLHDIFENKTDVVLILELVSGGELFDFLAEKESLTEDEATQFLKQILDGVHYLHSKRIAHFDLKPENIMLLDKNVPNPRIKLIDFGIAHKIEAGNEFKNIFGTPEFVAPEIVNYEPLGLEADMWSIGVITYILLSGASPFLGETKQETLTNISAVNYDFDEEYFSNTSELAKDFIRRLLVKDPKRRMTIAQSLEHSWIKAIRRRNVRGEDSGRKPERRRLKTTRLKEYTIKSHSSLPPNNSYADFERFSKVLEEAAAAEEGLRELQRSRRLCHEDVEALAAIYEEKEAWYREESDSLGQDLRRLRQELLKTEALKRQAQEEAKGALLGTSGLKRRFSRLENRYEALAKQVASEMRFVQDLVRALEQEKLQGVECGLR
Sequence of Serine/threonine-protein kinase PAK 4 (O96013 whole entry): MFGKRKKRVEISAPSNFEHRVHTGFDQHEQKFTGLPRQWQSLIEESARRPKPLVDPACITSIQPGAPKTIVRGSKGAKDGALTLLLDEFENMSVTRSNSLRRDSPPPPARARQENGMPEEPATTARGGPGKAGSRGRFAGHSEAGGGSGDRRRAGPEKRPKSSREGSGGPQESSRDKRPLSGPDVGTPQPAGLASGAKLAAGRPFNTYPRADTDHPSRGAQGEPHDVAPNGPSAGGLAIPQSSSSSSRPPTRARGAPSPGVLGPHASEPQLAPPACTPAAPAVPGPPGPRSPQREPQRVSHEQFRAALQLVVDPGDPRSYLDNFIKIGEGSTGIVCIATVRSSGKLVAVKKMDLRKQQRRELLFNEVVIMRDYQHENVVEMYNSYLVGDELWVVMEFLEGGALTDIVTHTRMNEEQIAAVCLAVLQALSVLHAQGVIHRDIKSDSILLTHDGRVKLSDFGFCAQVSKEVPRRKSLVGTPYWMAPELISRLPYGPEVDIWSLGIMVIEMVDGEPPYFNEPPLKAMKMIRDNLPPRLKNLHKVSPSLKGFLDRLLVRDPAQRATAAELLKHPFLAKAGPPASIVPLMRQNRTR
Sequence of Tyrosine-protein kinase Fgr (P09769 whole entry): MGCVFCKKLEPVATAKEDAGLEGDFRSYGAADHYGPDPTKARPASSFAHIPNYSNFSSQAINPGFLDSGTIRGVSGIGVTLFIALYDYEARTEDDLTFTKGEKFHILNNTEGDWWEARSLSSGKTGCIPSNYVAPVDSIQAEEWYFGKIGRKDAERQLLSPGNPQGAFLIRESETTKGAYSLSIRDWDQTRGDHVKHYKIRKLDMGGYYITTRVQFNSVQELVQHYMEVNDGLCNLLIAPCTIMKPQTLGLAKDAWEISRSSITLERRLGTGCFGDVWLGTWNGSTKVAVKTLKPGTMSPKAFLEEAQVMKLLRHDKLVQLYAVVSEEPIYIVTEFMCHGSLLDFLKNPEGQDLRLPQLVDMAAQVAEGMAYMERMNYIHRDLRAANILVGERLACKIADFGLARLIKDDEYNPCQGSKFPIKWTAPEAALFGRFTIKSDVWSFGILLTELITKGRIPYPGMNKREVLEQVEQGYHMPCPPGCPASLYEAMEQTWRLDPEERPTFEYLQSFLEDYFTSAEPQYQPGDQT
Sequence of Serine/threonine-protein kinase 16 (O75716 whole entry): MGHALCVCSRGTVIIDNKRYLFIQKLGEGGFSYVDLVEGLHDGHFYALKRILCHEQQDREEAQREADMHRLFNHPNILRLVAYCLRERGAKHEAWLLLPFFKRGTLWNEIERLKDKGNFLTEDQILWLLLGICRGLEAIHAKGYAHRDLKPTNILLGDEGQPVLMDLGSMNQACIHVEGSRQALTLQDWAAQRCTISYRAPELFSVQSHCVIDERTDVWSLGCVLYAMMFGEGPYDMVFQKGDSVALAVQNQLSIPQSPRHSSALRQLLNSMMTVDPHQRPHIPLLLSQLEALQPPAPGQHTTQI
Sequence of Tyrosine-protein kinase JAK1 (P23458 whole entry): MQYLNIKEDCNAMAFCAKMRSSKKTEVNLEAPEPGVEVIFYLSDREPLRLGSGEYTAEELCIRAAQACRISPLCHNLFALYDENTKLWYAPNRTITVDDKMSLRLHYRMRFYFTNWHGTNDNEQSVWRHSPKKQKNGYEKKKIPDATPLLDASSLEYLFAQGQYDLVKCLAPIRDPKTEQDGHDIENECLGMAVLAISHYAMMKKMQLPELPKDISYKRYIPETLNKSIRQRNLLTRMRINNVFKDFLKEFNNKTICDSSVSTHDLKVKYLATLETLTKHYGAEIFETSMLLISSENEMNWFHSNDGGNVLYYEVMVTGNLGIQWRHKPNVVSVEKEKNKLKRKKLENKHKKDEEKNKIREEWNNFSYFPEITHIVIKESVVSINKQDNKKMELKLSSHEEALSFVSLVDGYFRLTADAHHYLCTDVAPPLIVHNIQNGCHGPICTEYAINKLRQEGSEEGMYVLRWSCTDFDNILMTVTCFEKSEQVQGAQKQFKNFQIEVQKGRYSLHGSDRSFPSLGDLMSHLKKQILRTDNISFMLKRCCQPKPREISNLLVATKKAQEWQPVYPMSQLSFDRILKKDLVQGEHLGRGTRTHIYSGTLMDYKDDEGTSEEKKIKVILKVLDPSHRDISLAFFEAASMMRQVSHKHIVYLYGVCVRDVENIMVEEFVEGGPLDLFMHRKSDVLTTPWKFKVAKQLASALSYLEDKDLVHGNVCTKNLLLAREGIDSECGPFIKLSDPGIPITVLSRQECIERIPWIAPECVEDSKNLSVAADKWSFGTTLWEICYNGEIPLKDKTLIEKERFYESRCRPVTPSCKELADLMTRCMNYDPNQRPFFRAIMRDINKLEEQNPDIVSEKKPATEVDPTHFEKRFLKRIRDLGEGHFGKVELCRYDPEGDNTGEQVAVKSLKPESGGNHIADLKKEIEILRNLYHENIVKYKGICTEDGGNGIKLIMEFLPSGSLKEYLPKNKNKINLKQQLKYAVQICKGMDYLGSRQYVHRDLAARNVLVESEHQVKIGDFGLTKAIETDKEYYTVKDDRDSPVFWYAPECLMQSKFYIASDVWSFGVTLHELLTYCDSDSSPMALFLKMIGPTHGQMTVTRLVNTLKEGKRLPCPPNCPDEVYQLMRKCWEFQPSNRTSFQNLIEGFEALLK

C#Cc1cccc(Nc2ncnc3cc(OCCOC)c(OCCOC)cc23)c1 [ERLOTINIB]
Not Active: [1] | [2] | [3] | [4] | [5] | [6] | [7] | [8]

Cc1ccc(NC(=O)c2ccc(CN3CCN(C)CC3)cc2)cc1Nc1nccc(-c2cccnc2)n1 [IMATINIB]
Not Active: [1] | [2] | [3] | [4] | [5] | [6] | [7] | [8]

O=c1ncn2nc(Sc3ccc(F)cc3F)ccc2c1-c1c(Cl)cccc1Cl [NEFLAMAPIMOD]
Not Active: [1] | [3] | [5] | [6] | [7] | [8]

CCOc1cc2ncc(C#N)c(Nc3ccc(F)c(Cl)c3)c2cc1NC(=O)/C=C/CN(C)C [PELITINIB]
Not Active: [1] | [2] | [3] | [5] | [7] | [8]

Oc1ccc(-c2nc(-c3ccc(F)cc3)c(-c3ccncc3)[nH]2)cc1 [SB-202190]
Not Active: [1] | [2] | [3] | [4] | [5] | [6] | [7] | [8]

C[S+]([O-])c1ccc(-c2nc(-c3ccc(F)cc3)c(-c3ccncc3)[nH]2)cc1 (centres undefined) [SB-203580]
Not Active: [1] | [2] | [3] | [4] | [5] | [6] | [7] | [8]

CC[C@H](CO)Nc1nc(NCc2ccccc2)c2ncn(C(C)C)c2n1 [SELICICLIB]
Not Active: [2] | [3] | [4] | [5] | [6] | [7] | [8]

Oc1c2ccccc2c2c3c(cccc13)N=N2 [SP-600125]
Not Active: [2] | [4] | [5] | [7] | [8]

COc1cc2c(N3CCN(C(=O)Nc4ccc(OC(C)C)cc4)CC3)ncnc2cc1OCCCN1CCCCC1 [TANDUTINIB]
Not Active: [1] | [2] | [3] | [4] | [5] | [6] | [7] | [8]
